# Columns and labels:
# Assay in all cases: NCI In Vitro Cell Line Screening (SRB)
# SK-OV-3 = type: cell-based, human; conditions: SK-OV-3, Ovarian Cancer, 48 h
# U251 = type: cell-based, human; conditions: U251, CNS Cancer, 48 h
# SW-620 = type: cell-based; conditions: SW-620, Colon Cancer, 48 h
# PC-3 = type: cell-based, human; conditions: PC-3, Prostate Cancer, 48 h
# OVCAR-4 = type: cell-based, human; conditions: OVCAR-4, Ovarian Cancer, 48 h
# OVCAR-5 = type: cell-based, human; conditions: OVCAR-5, Ovarian Cancer, 48 h
# NCI-H460 = type: cell-based, human; conditions: NCI-H460, Non-Small Cell Lung Cancer, 48 h
# SNB-19 = type: cell-based, human; conditions: SNB-19, CNS Cancer, 48 h
# MCF7 = type: cell-based, human; conditions: MCF7, Breast Cancer, 48 h
# HCC-2998 = type: cell-based; conditions: HCC-2998, Colon Cancer, 48 h
# MDA-MB-435 = type: cell-based, human; conditions: MDA-MB-435, Breast Cancer, 48 h
# SK-MEL-5 = type: cell-based, human; conditions: SK-MEL-5, Melanoma, 48 h
# ACHN = type: cell-based, human; conditions: Renal Cancer, 48 h
# NCI/ADR-RES = type: cell-based, human; conditions: Breast Cancer, 48 h
# HOP-62 = type: cell-based, human; conditions: HOP-62, Non-Small Cell Lung Cancer, 48 h
# UACC-62 = type: cell-based, human; conditions: UACC-62, Melanoma, 48 h
# NCI-H322M = type: cell-based, human; conditions: Non-Small Cell Lung Cancer, 48 h
# HOP-92 = type: cell-based, human; conditions: HOP-92, Non-Small Cell Lung Cancer, 48 h
# A498 = type: cell-based, human; conditions: A498, Renal Cancer, 48 h
# A549/ATCC = type: cell-based; conditions: Non-Small Cell Lung Cancer, 48 h
# MDA-MB-231/ATCC = type: cell-based, human; conditions: Breast Cancer, 48 h
# T-47D = type: cell-based, human; conditions: Breast Cancer, 48 h
# CCRF-CEM = type: cell-based, human; conditions: Leukemia, 48 h
# SNB-75 = type: cell-based, human; conditions: SNB-75, CNS Cancer, 48 h
# KM12 = type: cell-based, human; conditions: KM12, Colon Cancer, 48 h
# K-562 = type: cell-based; conditions: K-562, Leukemia, 48 h
# HL-60(TB) = type: cell-based, human; conditions: Leukemia, 48 h
# SF-539 = type: cell-based, human; conditions: SF-539, CNS Cancer, 48 h
# [1] = Homo sapiens, read-out: LC50 (the source's name)
smiles,measurement,setting,value
"CC(C)(C)c1ccc(NC(=O)[C@H](CCCCN)NC(=O)OCC2c3ccccc3-c3ccccc32)cc1 [Compound 105, (S)-[5-AMINO-1-(4-TERT-BUTYL-PHENYLCARBAMOYL)-PENTYL]-CARBAMIC ACID 9H-FLUOREN-9-YLMETHYL ESTER]",GI50,SK-OV-3; Homo sapiens,1.85 µM
same,CC50,SK-OV-3; [1],5.99 µM
same,TGI,SK-OV-3,3.33 µM
same,GI50,"U251; Homo sapiens, U-251",4.74 µM
same,CC50,"U251; Homo sapiens, U-251, read-out: LC50 (the source's name)",48.3 µM
same,TGI,U251,17.3 µM
same,GI50,SW-620; Homo sapiens,2.49 µM
same,CC50,SW-620; [1],21.7 µM
same,TGI,SW-620,6.24 µM
same,GI50,PC-3; Homo sapiens,1.73 µM
same,CC50,PC-3; [1],6.41 µM
same,TGI,PC-3,3.33 µM
same,GI50,OVCAR-4; Homo sapiens,1.77 µM
same,CC50,OVCAR-4; [1],> 100 µM
same,TGI,OVCAR-4,4.25 µM
same,GI50,OVCAR-5; Homo sapiens,1.85 µM
same,CC50,OVCAR-5; [1],6.5 µM
same,TGI,OVCAR-5,3.46 µM
same,GI50,NCI-H460; Homo sapiens,1.13 µM
same,CC50,NCI-H460; [1],5.37 µM
same,TGI,NCI-H460,2.47 µM
same,GI50,SNB-19; Homo sapiens,1.6 µM
same,CC50,SNB-19; [1],5.68 µM
same,TGI,SNB-19,3.01 µM
same,GI50,MCF7; Homo sapiens,0.546 µM
same,CC50,MCF7; [1],4.75 µM
same,TGI,MCF7,1.91 µM
same,TGI,HCC-2998,2.88 µM
same,GI50,HCC-2998; Homo sapiens,1.39 µM
same,"LC50 (lethal concentration, 50% cell kill)",HCC-2998; Homo sapiens,5.96 µM
same,GI50,MDA-MB-435; Homo sapiens,4.27 µM
same,CC50,MDA-MB-435; [1],87.1 µM
same,TGI,MDA-MB-435,21.7 µM
same,GI50,SK-MEL-5; Homo sapiens,1.54 µM
same,TGI,SK-MEL-5,2.94 µM
same,GI50,ACHN; Homo sapiens,15.7 µM
same,CC50,ACHN; [1],58.5 µM
same,TGI,ACHN,30.3 µM
same,TGI,NCI/ADR-RES,1.1 µM
same,GI50,NCI/ADR-RES; Homo sapiens,< 0.01 µM
same,CC50,NCI/ADR-RES; [1],30.5 µM
same,TGI,HOP-62,3.87 µM
same,GI50,HOP-62; Homo sapiens,2.18 µM
same,CC50,HOP-62; [1],6.85 µM
same,GI50,UACC-62; Homo sapiens,13.7 µM
same,CC50,UACC-62; [1],58.2 µM
same,TGI,UACC-62,28.2 µM
same,GI50,NCI-H322M; Homo sapiens,13.5 µM
same,CC50,NCI-H322M; [1],69.9 µM
same,TGI,NCI-H322M,30.7 µM
same,TGI,HOP-92,3.08 µM
same,GI50,HOP-92; Homo sapiens,1.34 µM
same,CC50,HOP-92; [1],7.1 µM
same,TGI,A498,0.665 µM
same,GI50,A498; Homo sapiens,0.116 µM
same,CC50,A498; [1],15.5 µM
same,GI50,A549/ATCC; Homo sapiens,1.77 µM
same,CC50,A549/ATCC; [1],> 100 µM
same,TGI,A549/ATCC,23.5 µM
same,TGI,MDA-MB-231/ATCC,26.8 µM
same,GI50,MDA-MB-231/ATCC; Homo sapiens,11.1 µM
same,CC50,MDA-MB-231/ATCC; [1],64.7 µM
same,TGI,T-47D,3.08 µM
same,GI50,"T-47D; Homo sapiens, T47D",1.45 µM
same,GI50,CCRF-CEM; Homo sapiens,1.69 µM
same,CC50,CCRF-CEM; [1],6.47 µM
same,TGI,CCRF-CEM,3.31 µM
same,GI50,SNB-75; Homo sapiens,1.29 µM
same,CC50,SNB-75; [1],5.97 µM
same,TGI,SNB-75,2.78 µM
same,GI50,KM12; Homo sapiens,14.8 µM
same,CC50,KM12; [1],55.7 µM
same,TGI,KM12,28.7 µM
same,GI50,"K-562; Homo sapiens, K562",1.39 µM
same,TGI,K-562,3.32 µM
same,GI50,HL-60(TB); Homo sapiens,1.54 µM
same,TGI,HL-60(TB),3.47 µM
same,GI50,SF-539; Homo sapiens,1.48 µM
same,CC50,SF-539; [1],5.63 µM
same,TGI,SF-539,2.89 µM
